Laboratory results from US9108045B2, “Method and apparatus for optical inhibition of photodynamic therapy” (The General Hospital Corporation, priority 2007, dated 2015).

What was measured:
skin [1] = assay: Clinical suppression of superficial porphyrin synthesis by inhibiting light during ALA metabolism; type: in vivo
Excerpt: In further embodiments, superficial porphyrin accumulation resulting from topical application of ALA may be suppressed by blue light exposure during ALA metabolism. For example, a topical solution of 20% ALA can be applied to a region of skin. The region of skin can then be exposed to low level irradiance 410 nm blue light to inhibit accumulation of porphyrins. This light can be applied during the period of ALA metabolism, e.g., immediately after the application of the topical ALA solution or later in time. […] Here, clinical suppression refers to a diminished response of the tissue to treatment radiation in subsequent PDT procedures.

[2] = test system: moderate to severe inflammatory acne; type: in vivo, human; conditions: both sides of the face
Protocol: A 20% ALA solution (Dusa Pharmaceutics) was applied topically to the patient's face. The right side of the patient's face was covered with saran wrap and aluminum foil for 3 hours of incubation (to provide a conventional PDT treatment), while blue light at very low intensity (an inhibiting radiation) was applied to the left side of the patient's face for 3 hours (using a Clearlight at […], provided about 2 meters from the patient).
After the incubation period, both sides of the face were irradiated with red light treatment radiation (635 nm wavelength, at about 180 J/cm^2, using an Aktilite). During the red light irradiation, the patient indicated a subjective pain score of about 9-10 (on a 0-10 scale, with 0 being no pain, 5 being moderate pain, and 10 being maximum pain) on the right side of their face receiving conventional PDT treatment.

skin [3] = assay: Example 1: cooling and heating plates applied to skin after topical and injected ALA; porphyrin synthesis and skin photosensitization; type: in vivo
Protocol: When a skin surface is cooled, there can be a gradient of temperature such that ALA metabolism might favor the warm dermis. To examine this effect, cooling and heating plates were applied to skin after topical and injected ALA administration, and porphyrin synthesis and skin photosensitization were then determined.

[4] = test system: anterior ear skin of swine; type: in vivo
Protocol: Studies of ALA metabolism and porphyrin accumulation rates have been performed in anterior ear skin of swine. Such tissue bears many similarities to facial skin tissue in humans with respect to size and location of relevant tissue layers and target regions such as hair follicles and sebaceous glands. Topical 20% ALA in a water/alcohol solution was applied to the skin tissue, and formation of photosensitizers was analyzed based on quantitative fluorescence analysis of porphyrins formed from the ALA.
Overall porphyrin fluorescence was not observed until about 30-45 minutes after application of the ALA solution, although epidermis fluorescence measurement was statistically significant after only 15 minutes following the ALA application. Between about 30 and 120 minutes following application of the ALA solution, epidermis, hair follicles, and sebaceous glands became progressively more fluorescent. […] Fluorescence in all sites reached a maximum intensity between about 75 and 180 minutes after application of the ALA solution.

skin of a pig = assay: Example 2: blue light through attenuating films during ALA incubation; porphyrin accumulation by fluorescence; type: in vivo; conditions: 20% topical ALA, 410 nm blue light 2.6 mW/cm^2 for 3 hours through attenuating films, 100% to 17% transmittance (0.4 mW/cm^2)
Protocol: In accordance with embodiments of the present invention, 20% topical ALA was applied to the skin of a pig. Nine different areas were divided and different attenuating films were placed over the skin during the entire incubation time (or the metabolism period). The attenuating films reduced the light transmittance allowing a range of irradiance varying from 100%, 56%, 44%, 35%, 26%, 21%, 19% to 17% of light during the incubation period.
Immediately after the drug application, a 410 nm blue light was irradiated through all the experiment sites at an irradiance of 2.6 mW/cm^2 for 3 hours. During this period, porphyrin accumulation was measured in each test area by digital fluorescence photography (˜410 nm excitation, >600 nm emission), and microscopically determined by fluorescence microscopy of skin biopsies (8 mm diameter) obtained prior to light exposure. After the 3 hours of incubation, red light at 635 nm exposure with 200 J/cm^2 fluence was delivered at 100 mW/cm^2 irradiance, provided by an LED array source (Omnilux, PhotoTherapeutics LTD, Cheshire UK). Measurements and biopsies were repeated after 24 hours, prior to euthanasia.

human skin = assay: Example 1: suppression of epidermal porphyrin accumulation by blue light exposure during ALA metabolism; type: in vivo; conditions: 20% topical ALA, 410-nm blue light 1.47 mW/cm^2 during 2 hours incubation, then 632-nm light 100 J/cm^2
Protocol: Suppression of epidermal porphyrin accumulation by blue light exposure during ALA metabolism, in accordance with exemplary embodiments of the present invention, was tested in humans. With reference to FIG. 6, a 20% topical ALA solution was applied to human skin 610, covered with aluminum foil 620, while only some uncovered areas received 410-nm blue light (1.47 mW/cm^2) 630 during the incubation time. A fluorescent photo 640 was taken after 2 hours of incubation, and 632-nm light (100 J/cm^2) was then applied to all areas 650. A clinical photograph 660 was taken after PDT treatment.

## NCC(=O)CCC(=O)O [ALA, 5-aminolevulinic acid]
Skin [1]; red light 633 nm, irradiance about 14-40 mW/cm^2
  clinical suppression of superficial porphyrin synthesis: some clinical suppression
Skin [1]; topical 20% ALA, blue light 415 nm, irradiance about 10-30 mW/cm^2 during ALA metabolism
  clinical suppression of epidermal and/or superficial porphyrin synthesis: almost complete clinical suppression
Skin [1]; topical 20% ALA, blue light, irradiance about 60 μW/cm^2 to 3 mW/cm^2
  suppression of photosensitizer formation: Some suppression
Skin [1]; topical 20% ALA, blue light, irradiance less than about 30 μW/cm^2
  clinical suppression of photosensitizer formation: No clinical suppression
[2]
  acne outcome after four weeks: no new inflammatory acne
Skin [3]; skin cooling to less than about 20° C., topical and injected ALA
  conversion of epidermal ALA to porphyrins: significantly suppress
Skin [3]; skin surface temperature 20° C.
  dermal porphyrin synthesis: partially suppressed
[4]; in vivo
  fluorescence of hair follicles and sebaceous glands relative to other sites (trend): stronger fluorescence compared with epidermis and eccrine glands
[4]; swine
  time after application at which epidermis fluorescence measurement was statistically significant: 15 min
[4]; swine, in vivo
  time after application at which fluorescence reached maximum intensity: 75 to 180 min
  time after application until overall porphyrin fluorescence was observed: 30 to 45 min
  time at which eccrine gland fluorescence was first detected: about 30 minutes
  time at which sebaceous glands started to show fluorescence: 45 to 75 min
Skin of a pig
  porphyrin accumulation under blue light: inhibition of porphyrin accumulation in all sites down to 17% light transmittance
Human skin
  porphyrin accumulation and subsequent PDT reactions: suppressed
